From patent publication US4661592A, “4H-pyrimido[2,1-a]isoquinolin-4-one derivatives” (G. D. Searle & Co., priority 1984, dated 1987) come the findings set out here.

This assay in a line: Food intake test in food-deprived rats (anorectic activity). The class given is in vivo, Male Sprague-Dawley derived rats. As to conditions: rat, 32.0 mg/kg i.g., 24 h food-deprived, food given 30 min after dosing; for Food Intake, % of control, 1 Hr.: 1 hour intake; for Food Intake, % of control, 2 Hr.: 2 hour intake; for Food Intake, % of control, 6 Hr.: 6 hour intake. On the procedure: Male Sprague-Dawley derived rats, Charles River Breeders (Portage, MI), weighing between 200-400 grams at the time of testing, were employed in the food intake studies and water intake studies. The rats were housed individually and kept on a 12 hour light-dark-light cycle. The room temperature ranged between 23°-25° C. The rats employed in food intake testing were food deprived on the day preceding testing and were divided into experimental groups that were matched on the basis of average daily food intake and body weight. At approximately 24 hour post-deprivation, the rats were administered a test sample containing as the active ingredient a compound of the present invention. All test samples employed herein were prepared and homogenized in a vehicle of normal saline (to which a few drops of PG/Tween 80 was added). The test samples were administered at an injection volume of 2 ml/kg, unless otherwise stated. Thirty minutes following administration of the test samples, pre-weighed food jars containing ground meal were placed in the rats' cages. (Prior to testing the rats were given ground meal for a minimum of 3 days to familiarize the rats with this food.) After 1, 2 and 6 hours of food access, the jars were removed, weighed and returned to the rats' cages providing a 1, 2 and 6 hours intake measurement. […] The results obtained are represented in Table I as a percent of control values. A student t test was used for making statistical comparisons, and the p-values are based upon two-tailed comparisons. The compound employed as the active ingredient on the test sample is indicated by the example number which describes its preparation.

`O=c1c(CO)cnc2c3ccccc3ccn12` [Example 1, 3-(hydroxymethyl)-4H-pyrimido [2,1-a]isoquinolin-4-one]: the “Food Intake, % of control, 1 Hr.” value is 61.8 % of control; the “Food Intake, % of control, 2 Hr.” value is reported as 77.4 % of control; the “Food Intake, % of control, 6 Hr.” value is on record as 90.4 % of control.

For `CC(=O)OCc1cnc2c3ccccc3ccn2c1=O` [Example 2, 3-(hydroxymethyl)-4H-pyrimido[2,1-a]isoquinolin-4-one acetate], the “Food Intake, % of control, 1 Hr.” value was 51.4 % of control; the “Food Intake, % of control, 2 Hr.” value was 67.1 % of control; the “Food Intake, % of control, 6 Hr.” value is listed as 89.8 % of control.

As to `Cl.Cl.NCc1cnc2c3ccccc3ccn2c1=O` [Example 3, 3-(aminomethyl)-4H-pyrimido[2,1-a]isoquinolin-4-one, dihydrochloride], the “Food Intake, % of control, 1 Hr.” value is recorded as 51.3 % of control; the “Food Intake, % of control, 2 Hr.” value is 71.4 % of control; the “Food Intake, % of control, 6 Hr.” value was 92.3 % of control.

For `CCN(CC)CCOCc1cnc2c3ccccc3ccn2c1=O.Cl.Cl` [Example 4, 3-[[2-(diethylamino)ethoxy]methyl]-4H-pyrimido[2,1-a]isoquinolin-4-one dihydrochloride], the “Food Intake, % of control, 1 Hr.” value is recorded as 70.8 % of control; the “Food Intake, % of control, 2 Hr.” value is 80.8 % of control; the “Food Intake, % of control, 6 Hr.” value is reported as 90.9 % of control.

For `CN(C)CCNC(=O)c1cnc2c3ccccc3ccn2c1=O` [Example 5], the “Food Intake, % of control, 1 Hr.” value is given as 82.4 % of control; the “Food Intake, % of control, 2 Hr.” value is 87.5 % of control; the “Food Intake, % of control, 6 Hr.” value is recorded as 88.3 % of control.
